Measured values published in patent publication US20250034158A1, “TEXAPHYRIN DERIVATIVES FOR MANGANESE CHEMOTHERAPY, PHOTOACOUSTIC IMAGING, AND PHOTOTHERMAL THERAPY” (BOARD OF REGENTS, THE UNIVERSITY OF TEXAS SYSTEM, priority 2020, published 2025).

Tests used:
[1] = Photostability under photoirradiation (UV-Vis absorption over time); format: physicochemical; conditions: fluence ~18 mJ/cm^2
From the text: Measurements were taken at 5-minute intervals. Fluence: 20 mJ/cm^2. Laser wavelength: 780 nm.
Measurements were taken at 5-minute intervals. Fluence: 20 mJ/cm^2. Laser wavelength: 725 nm.
Measurements were taken at 5-minute intervals. Fluence: 20 mJ/cm^2. Laser wavelength: 740 nm.
Photostability is also relevant factor to consider for a potential PA contrast agent for clinical applications.

C4-2 tumor [2] = assay: In vivo stability of PA signal after direct injection at the tumor site; parameters: species or system mouse; conditions: 250 μM, 50 μL, 0.625 μmol/kg, direct injection into tumor, 0-60 min
Protocol: Laser light was used to illuminate the tumor during data collection: 800 nm, 20 mJ for ICG and 725 nm, 20 mJ for MMn.
Laser wavelength: 800 nm, Laser fluence: 20 mJ/cm^2. Percentage of PA signal after 1 hour=46%
Laser wavelength: 725 nm, Laser fluence: 20 mJ/cm^2. Percentage of PA signal after 1 hour=91%
(§1) Male BALB/c nude mice (18±2 g, 4-6 weeks old) were purchased from a commercial source and used according to standard animal guidelines for the care and use of laboratory animals with appropriate ethical oversight board approval.
Human prostate cancer cell lines C4-2 were purchased from commercial sources and cultured in Dulbecco's Modified Eagle Medium (DMEM) (Life Technologies, NY, USA) supplemented with 10% fetal bovine serum (FBS; Cyclone, UT, USA). […]
(§2) An optical parametric oscillator (OPO) laser source (Innolas GmbH, Bonn, Germany) emitting 8 ns pulsed lasers was coupled to a multimode optical fiber with a 1500 μm core diameter for the photoacoustic signal excitation. […] This led to the vibration of the tissue, which generated ultrasonic waves that could be recorded by a commercial 128-element linear array transrectal ultrasound transducer. […]
To confirm the in vivo stability of MMn for PA imaging, MMn was injected directly at the tumor site and the PA signal was measured over time (0-60 mins) with concurrent US imaging. […]

C4-2 tumor [3] = assay: In vivo PA imaging, prostate tumor mouse model, tail vein injection; conditions: 500 μM, 200 μL, 5 μmol/kg, after 24 h
Protocol: as §1
Human prostate cancer cell lines C4-2 were purchased from commercial sources and cultured in Dulbecco's Modified Eagle Medium (DMEM) (Life Technologies, NY, USA) supplemented with 10% fetal bovine serum (FBS; Cyclone, UT, USA). Cells were incubated at 37° C. in a humidified atmosphere containing 5% CO2. For C4-2 tumor inoculation, C4-2 cells (˜1×10^6) suspended in PBS were injected under the nude mice epidermis of the right flank. Animals were observed every day for any behavioral abnormalities. […]
as §2
To test further the PA imaging potential of MMn, in vivo experiments were performed using a prostate tumor mouse model as shown in FIG. 19. […] Normalized PA intensity values were then calculated. […]

change in absorption at 780 nm over photoirradiation ([1]; 40 μM, 30 minutes): 90% | photostability upon photoirradiation ([1]; ICG: 100 μM, 20 minutes, 780 nm): poor photostability
Compound: CC1(C)C(/C=C/C=C/C=C/C=C2\N(CCCCS(=O)(=O)O)c3ccc4ccccc4c3C2(C)C)=[N+](CCCCS(=O)(=O)[O-])c2ccc3ccccc3c21 [ICG, Indocyanine green]
PA signal remaining at tumor site after 1 hour (C4-2 tumor [2]): 46% | increase in normalized PA signal intensity at the tumor site relative to pre-injection (C4-2 tumor [3]): No significant increase
